Results taken from ChEMBL document CHEMBL1208782, “Synthesis and pharmacological validation of a novel series of non-steroidal FXR agonists” (Bioorg Med Chem Lett, 2010).

Legend:
Type in all cases: functional, cell-based
[1] = target: T1, Peroxisome proliferator-activated receptor alpha (Homo sapiens) (UniProt Q07869); assay: Agonist activity at PPARalpha-LBD expressed in HEK293 cells assessed as Gal4-DBD interaction by cellular mammalian one hybrid assay relative to GW-7467
T1 sequence (whole entry): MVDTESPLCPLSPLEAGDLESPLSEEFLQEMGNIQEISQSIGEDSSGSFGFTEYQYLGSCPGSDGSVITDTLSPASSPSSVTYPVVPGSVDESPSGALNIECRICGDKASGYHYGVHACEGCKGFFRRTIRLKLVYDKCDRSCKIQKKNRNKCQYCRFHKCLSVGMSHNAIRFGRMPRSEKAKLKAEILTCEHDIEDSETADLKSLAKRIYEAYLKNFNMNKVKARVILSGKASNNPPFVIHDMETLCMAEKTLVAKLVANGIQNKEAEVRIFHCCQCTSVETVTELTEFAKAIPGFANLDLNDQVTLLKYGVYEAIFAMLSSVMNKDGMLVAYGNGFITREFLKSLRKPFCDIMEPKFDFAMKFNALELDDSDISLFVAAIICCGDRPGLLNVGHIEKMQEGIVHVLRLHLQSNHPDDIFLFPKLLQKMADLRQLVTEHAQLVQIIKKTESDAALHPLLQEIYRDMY

[2] = target: T2, Retinoic acid receptor gamma (Homo sapiens, UniProt P13631); assay: Agonist activity at RARgamma-LBD expressed in HEK293 cells assessed as Gal4-DBD interaction by cellular mammalian one hybrid assay
T2 sequence (P13631 whole entry): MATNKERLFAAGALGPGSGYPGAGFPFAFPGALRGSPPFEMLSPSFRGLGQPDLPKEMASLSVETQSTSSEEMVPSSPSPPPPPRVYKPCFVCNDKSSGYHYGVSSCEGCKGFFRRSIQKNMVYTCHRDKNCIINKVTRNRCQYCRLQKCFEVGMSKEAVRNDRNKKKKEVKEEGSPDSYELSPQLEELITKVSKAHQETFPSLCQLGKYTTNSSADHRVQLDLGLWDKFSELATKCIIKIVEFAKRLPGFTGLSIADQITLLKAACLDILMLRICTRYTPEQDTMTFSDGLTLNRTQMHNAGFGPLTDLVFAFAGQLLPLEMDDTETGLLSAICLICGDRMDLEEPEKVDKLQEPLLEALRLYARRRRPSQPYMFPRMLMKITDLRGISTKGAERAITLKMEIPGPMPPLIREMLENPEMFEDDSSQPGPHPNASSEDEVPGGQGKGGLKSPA

[3] = target: T3, Bile acid receptor (Homo sapiens, UniProt Q96RI1); assay: Agonist activity at human full length FXR transfected in HEK293 cells coexpressing pTRexDest/pGL2promotor assessed as luciferase activity by direct reporter cellular assay; conditions: read-out: EC50
T3 sequence (Q96RI1 whole entry): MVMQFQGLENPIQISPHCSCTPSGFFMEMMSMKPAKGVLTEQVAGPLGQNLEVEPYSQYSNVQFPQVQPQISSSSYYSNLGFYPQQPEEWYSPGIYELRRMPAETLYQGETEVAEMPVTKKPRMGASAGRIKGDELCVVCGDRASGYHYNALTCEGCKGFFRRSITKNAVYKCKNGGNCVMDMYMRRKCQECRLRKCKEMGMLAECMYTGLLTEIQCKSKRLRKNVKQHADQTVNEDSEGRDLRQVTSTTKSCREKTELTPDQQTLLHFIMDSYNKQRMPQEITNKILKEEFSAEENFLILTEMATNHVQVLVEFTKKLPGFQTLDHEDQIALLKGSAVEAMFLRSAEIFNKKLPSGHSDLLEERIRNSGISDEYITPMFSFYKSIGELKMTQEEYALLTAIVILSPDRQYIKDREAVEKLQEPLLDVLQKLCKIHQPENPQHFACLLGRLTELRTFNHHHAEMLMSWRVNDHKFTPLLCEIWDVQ

[4] = target: T4, CAR (nuclear receptor subfamily 1 group I member 3) (Homo sapiens, UniProt Q14994); assay: Agonist activity at CAR-LBD expressed in HEK293 cells assessed as Gal4-DBD interaction by cellular mammalian one hybrid assay relative to androstane; conditions: HEK293 cells expressing CAR-LBD, read-out: Efficacy
T4 sequence (Q14994 whole entry): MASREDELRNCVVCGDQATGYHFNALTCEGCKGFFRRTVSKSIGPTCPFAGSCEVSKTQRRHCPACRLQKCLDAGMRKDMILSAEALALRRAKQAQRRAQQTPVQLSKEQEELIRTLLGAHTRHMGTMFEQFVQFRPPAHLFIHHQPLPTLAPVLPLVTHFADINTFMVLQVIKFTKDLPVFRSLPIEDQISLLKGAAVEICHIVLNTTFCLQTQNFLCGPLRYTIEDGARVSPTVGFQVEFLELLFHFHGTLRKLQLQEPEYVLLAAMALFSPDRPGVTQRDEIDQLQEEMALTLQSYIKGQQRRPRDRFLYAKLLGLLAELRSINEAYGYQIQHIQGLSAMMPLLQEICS

[5] = target: T5, Androgen receptor (Homo sapiens) (UniProt P10275); assay: Agonist activity at androgen receptor-LBD expressed in HEK293 cells assessed as Gal4-DBD interaction by cellular mammalian one hybrid assay relative to androgen
T5 sequence (whole entry): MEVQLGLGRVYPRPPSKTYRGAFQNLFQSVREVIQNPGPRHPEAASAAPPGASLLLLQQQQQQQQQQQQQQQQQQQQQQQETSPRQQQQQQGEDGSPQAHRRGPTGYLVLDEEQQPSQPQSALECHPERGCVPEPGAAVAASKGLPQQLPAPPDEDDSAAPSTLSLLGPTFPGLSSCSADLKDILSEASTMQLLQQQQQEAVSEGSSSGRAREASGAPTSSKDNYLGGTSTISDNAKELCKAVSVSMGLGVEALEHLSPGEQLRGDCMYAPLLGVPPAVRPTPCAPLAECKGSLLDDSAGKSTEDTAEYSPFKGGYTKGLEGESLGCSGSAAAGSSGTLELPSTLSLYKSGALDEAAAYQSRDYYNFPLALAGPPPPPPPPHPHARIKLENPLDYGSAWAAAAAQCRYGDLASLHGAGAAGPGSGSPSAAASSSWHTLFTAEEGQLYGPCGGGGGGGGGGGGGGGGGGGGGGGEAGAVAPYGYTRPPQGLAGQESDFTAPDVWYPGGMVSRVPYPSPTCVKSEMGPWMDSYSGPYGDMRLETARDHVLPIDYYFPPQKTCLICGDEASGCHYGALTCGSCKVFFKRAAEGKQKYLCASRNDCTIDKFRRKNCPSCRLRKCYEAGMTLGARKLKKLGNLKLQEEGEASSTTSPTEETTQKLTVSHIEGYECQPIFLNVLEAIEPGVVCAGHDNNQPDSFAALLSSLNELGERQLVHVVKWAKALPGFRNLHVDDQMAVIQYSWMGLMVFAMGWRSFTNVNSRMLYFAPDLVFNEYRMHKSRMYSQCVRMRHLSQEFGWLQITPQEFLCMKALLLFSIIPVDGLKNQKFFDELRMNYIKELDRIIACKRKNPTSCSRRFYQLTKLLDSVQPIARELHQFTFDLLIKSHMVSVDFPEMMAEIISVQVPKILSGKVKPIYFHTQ

| Efficacy [1] [%] | EC50 [2] [µM] | EC50 [3] [nM] | Emax [4] [%] | Efficacy [5] [%] | Structure (SMILES) |
| --- | --- | --- | --- | --- | --- |
| 0 | > 10 | 6 | 0 | 0 | CN(Cc1ccc(C(=O)O)cc1)c1ccc(OCc2c(-c3c(Cl)cccc3Cl)noc2C2CC2)nc1C(F)(F)F |
| 15 | > 10 | 2 | 0 | 0 | CN(Cc1cccc(C(=O)O)c1)c1ccc(OCc2c(-c3c(Cl)cccc3Cl)noc2C2CC2)nc1C(F)(F)F |
| 0 | > 10 | 15 | 0 | 0 | CC(C)c1onc(-c2c(Cl)cccc2Cl)c1COc1ccc(N(C)Cc2ccc(C(=O)O)cc2)c(C(F)(F)F)n1 |
